# Measured values: PMC4138103 (PLoS ONE, 2014)
# Tested on: Sprague-Dawley rats
# Experiment: Organ weights
# Format: in vivo, Rattus norvegicus
# Experimental: At the end of the treatment period (males on study day 28–31, females on study day 28–32) the rats were anesthetized with CO2/O2 (70/30%). Blood samples were drawn from the left ventricle using Venoject needles (Terumo) and Vacuette EDTA and serum blood collection tubes, and the rats were killed by exsanguination. EDTA blood was used for hematology investigations (see below). Serum was separated, divided into aliquots, frozen in liquid nitrogen and stored at −70°C for further analysis (see below). A complete necropsy (macroscopic observations, tissue sampling for molecular biology, biochemistry, histopathology, analytical chemistry and organ weights) was performed on each rat. The weights of the following organs were recorded: adrenals, brain, epididymides, heart, kidneys, liver, lungs, ovaries, pituitary, prostate (ventral), seminal vesicles, spleen, testes, thymus, thyroids (with parathyroids) and uterus. For molecular biology and biochemical analyses samples from brain, liver, kidney, bones, and several other tissues were snap frozen in liquid nitrogen and stored at −80°C for further analysis. […] Tissue samples for histopathology were preserved in 10% neutral buffered formalin except testis and epididymis, which were fixed in Bouin's solution for 24 h after which they were transferred into 70% ethanol.
# Data were also analyzed using the BMD method, which is based on dose-response modeling of the full data set using a nested family of exponential and Hill models. The analyses were done on data of males and females combined, using sex as a covariate. […] In that case, different Critical Effect Doses (CEDs) and CEDs at the lowest bound of the confidence interval (CED-L) were generated for each sex. If no difference between sexes is detected, a CED and CED-Ls for the combined data is generated. However, this was also done if the curve fits are close, and separate analyses for males and females were then performed manually. CEDs and CED-Ls were calculated at the predefined Critical Effect Size (CES) of 5% (EFSA standard) or 10%.
# [1] = females, total dose 1000 mg/kg bw, group mean
# [2] = females, total dose 1700 mg/kg bw, group mean
# [3] = males, CES 5%, total dose based
# [4] = males, CES 10%, total dose based
# [5] = males, adipose tissue concentration based
# [6] = males, total dose 3 mg/kg bw, group mean
# [7] = males, total dose 10 mg/kg bw, group mean
# [8] = males, total dose 30 mg/kg bw, group mean
# [9] = males, total dose 100 mg/kg bw, group mean
# [10] = males, total dose 300 mg/kg bw, group mean
# [11] = males, total dose 1000 mg/kg bw, group mean
# [12] = males, total dose 1700 mg/kg bw, group mean
compound,measurement,setting,value
"Clc1cc(Cl)c(-c2cc(Cl)c(Cl)c(Cl)c2Cl)cc1Cl [PCB 180, 2,2′,3′,4,4′,5,5′-heptachlorobiphenyl]","Organ weight, Spleen",[1],0.700 g
same,"Organ weight, Thymus",[1],0.528 g
same,"Organ weight, Thyroid gland",[1],0.0158 g
same,"Organ weight, Uterus",[1],0.374 g
same,"Organ weight, Adrenals",[2],0.0657 g
same,"Organ weight, Brain",[2],1.60 g
same,"Organ weight, Heart",[2],0.900 g
same,"Organ weight, Kidneys",[2],1.40 g
same,"Organ weight, Ovaries",[2],0.102 g
same,"Organ weight, Pituitary",[2],0.0108 g
same,"Organ weight, Spleen",[2],0.664 g
same,"Organ weight, Thymus",[2],0.560 g
same,"Organ weight, Thyroid gland",[2],0.0160 g
same,"Organ weight, Uterus",[2],0.366 g
same,"Dose response, Thyroid gland weight","males, total dose 0-1700 mg/kg bw","D, T"
same,"Liver weight, CED",[3],11.6 mg/kg bw
same,"Liver weight, CED-L",[3],5.48 mg/kg bw
same,"Thyroid gland weight, CED",[3],239 mg/kg bw
same,"Thyroid gland weight, CED-L",[3],168 mg/kg bw
same,"Liver weight, CED",[4],24.2 mg/kg bw
same,"Liver weight, CED-L",[4],11.4 mg/kg bw
same,"Thyroid gland weight, CED",[4],467 mg/kg bw
same,"Thyroid gland weight, CED-L",[4],328 mg/kg bw
same,"Liver weight, CED",[5],42.3 µg/g lipid
same,"Thyroid weight, CED",[5],1030 µg/g lipid
same,"Organ weight, Adrenals",[6],0.0472 g
same,"Organ weight, Brain",[6],1.65 g
same,"Organ weight, Epididymides",[6],0.972 g
same,"Organ weight, Heart",[6],1.27 g
same,"Organ weight, Kidneys",[6],2.00 g
same,"Organ weight, Pituitary",[6],0.0091 g
same,"Organ weight, Seminal vesicles",[6],0.915 g
same,"Organ weight, Spleen",[6],0.828 g
same,"Organ weight, Testis L",[6],1.82 g
same,"Organ weight, Testis R",[6],1.82 g
same,"Organ weight, Thymus",[6],0.632 g
same,"Organ weight, Thyroid gland",[6],0.0210 g
same,"Organ weight, Ventral prostate",[6],0.492 g
same,"Organ weight, Adrenals",[7],0.0514 g
same,"Organ weight, Brain",[7],1.75 g
same,"Organ weight, Epididymides",[7],0.952 g
same,"Organ weight, Heart",[7],1.17 g
same,"Organ weight, Kidneys",[7],2.15 g
same,"Organ weight, Pituitary",[7],0.0088 g
same,"Organ weight, Seminal vesicles",[7],0.983 g
same,"Organ weight, Spleen",[7],0.828 g
same,"Organ weight, Testis L",[7],1.92 g
same,"Organ weight, Testis R",[7],1.88 g
same,"Organ weight, Thymus",[7],0.594 g
same,"Organ weight, Thyroid gland",[7],0.0221 g
same,"Organ weight, Ventral prostate",[7],0.451 g
same,"Organ weight, Adrenals",[8],0.0665 g
same,"Organ weight, Brain",[8],1.72 g
same,"Organ weight, Epididymides",[8],1.030 g
same,"Organ weight, Heart",[8],1.31 g
same,"Organ weight, Kidneys",[8],2.09 g
same,"Organ weight, Pituitary",[8],0.0098 g
same,"Organ weight, Seminal vesicles",[8],0.966 g
same,"Organ weight, Spleen",[8],0.876 g
same,"Organ weight, Testis L",[8],1.79 g
same,"Organ weight, Testis R",[8],1.78 g
same,"Organ weight, Thymus",[8],0.764 g
same,"Organ weight, Thyroid gland",[8],0.0227 g
same,"Organ weight, Ventral prostate",[8],0.518 g
same,"Organ weight, Adrenals",[9],0.0513 g
same,"Organ weight, Brain",[9],1.70 g
same,"Organ weight, Epididymides",[9],0.992 g
same,"Organ weight, Heart",[9],1.20 g
same,"Organ weight, Kidneys",[9],2.13 g
same,"Organ weight, Pituitary",[9],0.0107 g
same,"Organ weight, Seminal vesicles",[9],1.015 g
same,"Organ weight, Spleen",[9],0.826 g
same,"Organ weight, Testis L",[9],1.88 g
same,"Organ weight, Testis R",[9],1.88 g
same,"Organ weight, Thymus",[9],0.770 g
same,"Organ weight, Thyroid gland",[9],0.0236 g
same,"Organ weight, Ventral prostate",[9],0.521 g
same,"Organ weight, Adrenals",[10],0.0407 g
same,"Organ weight, Brain",[10],1.74 g
same,"Organ weight, Epididymides",[10],0.966 g
same,"Organ weight, Heart",[10],1.23 g
same,"Organ weight, Kidneys",[10],2.11 g
same,"Organ weight, Pituitary",[10],0.0098 g
same,"Organ weight, Seminal vesicles",[10],1.038 g
same,"Organ weight, Spleen",[10],0.858 g
same,"Organ weight, Testis L",[10],1.87 g
same,"Organ weight, Testis R",[10],1.85 g
same,"Organ weight, Thymus",[10],0.690 g
same,"Organ weight, Thyroid gland",[10],0.0266 g
same,"Organ weight, Ventral prostate",[10],0.536 g
same,"Organ weight, Adrenals",[11],0.0450 g
same,"Organ weight, Brain",[11],1.71 g
same,"Organ weight, Epididymides",[11],0.974 g
same,"Organ weight, Heart",[11],1.12 g
same,"Organ weight, Kidneys",[11],2.18 g
same,"Organ weight, Pituitary",[11],0.0115 g
same,"Organ weight, Seminal vesicles",[11],1.210 g
same,"Organ weight, Spleen",[11],0.858 g
same,"Organ weight, Testis L",[11],1.89 g
same,"Organ weight, Testis R",[11],1.85 g
same,"Organ weight, Thymus",[11],0.686 g
same,"Organ weight, Thyroid gland",[11],0.0294 g
same,"Organ weight, Ventral prostate",[11],0.566 g
same,"Organ weight, Adrenals",[12],0.0463 g
same,"Organ weight, Brain",[12],1.68 g
same,"Organ weight, Epididymides",[12],0.952 g
same,"Organ weight, Heart",[12],1.16 g
same,"Organ weight, Kidneys",[12],2.03 g
same,"Organ weight, Pituitary",[12],0.0089 g
same,"Organ weight, Seminal vesicles",[12],0.947 g
same,"Organ weight, Spleen",[12],0.800 g
same,"Organ weight, Testis L",[12],1.84 g
same,"Organ weight, Testis R",[12],1.88 g
same,"Organ weight, Thymus",[12],0.772 g
same,"Organ weight, Ventral prostate",[12],0.461 g
same,Thymus weight,"rat, in vivo",not decreased
